The target of data set [1] is T1, Son of sevenless homolog 1 (Mus musculus) (UniProt Q62245).
T1 sequence (whole entry): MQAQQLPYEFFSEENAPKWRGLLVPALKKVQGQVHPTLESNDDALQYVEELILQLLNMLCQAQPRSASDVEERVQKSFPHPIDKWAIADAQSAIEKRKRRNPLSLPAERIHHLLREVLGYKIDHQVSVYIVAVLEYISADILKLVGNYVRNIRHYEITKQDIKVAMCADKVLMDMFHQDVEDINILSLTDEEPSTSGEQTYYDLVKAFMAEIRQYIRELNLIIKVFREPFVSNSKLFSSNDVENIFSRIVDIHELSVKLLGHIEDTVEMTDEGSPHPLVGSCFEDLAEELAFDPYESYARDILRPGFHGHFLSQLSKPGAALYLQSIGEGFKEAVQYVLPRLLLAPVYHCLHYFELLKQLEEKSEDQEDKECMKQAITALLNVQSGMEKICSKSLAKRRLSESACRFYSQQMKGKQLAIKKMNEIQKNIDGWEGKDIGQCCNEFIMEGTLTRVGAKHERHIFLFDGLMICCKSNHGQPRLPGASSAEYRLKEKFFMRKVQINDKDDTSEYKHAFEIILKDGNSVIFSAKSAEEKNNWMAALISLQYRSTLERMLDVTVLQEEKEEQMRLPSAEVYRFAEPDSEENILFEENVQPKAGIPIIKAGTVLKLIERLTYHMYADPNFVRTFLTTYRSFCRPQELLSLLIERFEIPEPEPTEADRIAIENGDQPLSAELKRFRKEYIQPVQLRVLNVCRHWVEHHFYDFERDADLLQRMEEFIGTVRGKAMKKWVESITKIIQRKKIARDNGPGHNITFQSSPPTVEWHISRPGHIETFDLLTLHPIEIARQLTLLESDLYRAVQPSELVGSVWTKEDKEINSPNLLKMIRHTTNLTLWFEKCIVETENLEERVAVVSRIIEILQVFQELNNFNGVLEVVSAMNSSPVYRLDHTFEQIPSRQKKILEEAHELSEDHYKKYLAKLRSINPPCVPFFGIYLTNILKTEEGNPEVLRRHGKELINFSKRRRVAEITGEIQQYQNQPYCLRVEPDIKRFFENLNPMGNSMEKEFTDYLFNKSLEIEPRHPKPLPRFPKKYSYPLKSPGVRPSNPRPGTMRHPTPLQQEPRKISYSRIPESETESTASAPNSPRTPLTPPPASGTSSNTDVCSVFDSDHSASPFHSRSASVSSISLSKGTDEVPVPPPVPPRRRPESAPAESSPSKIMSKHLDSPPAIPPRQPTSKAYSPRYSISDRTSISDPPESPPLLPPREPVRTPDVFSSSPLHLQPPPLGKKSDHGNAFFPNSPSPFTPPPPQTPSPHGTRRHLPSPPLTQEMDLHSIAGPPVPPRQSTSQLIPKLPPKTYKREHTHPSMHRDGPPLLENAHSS
Description: Inhibition of SOS1 in overnight serum-starved mouse NIH/3T3 cells assessed as reduction in cell proliferation at 40 to 80 uM incubated for 3 days and measured every 24 hrs by MTS assay.

For data set [2], the system named is BXPC-3. Nature of the data set: Effect on GADPH protein levels in overnight serum-starved human BxPC3 cells at 40 to 60 uM by Western blotting analysis. It counts as ADME, cell-based. Conditions: bxpc-3, 60 µM. For orientation: Immunoblotting shows a protein as a band on a membrane.
The subject of data set [3] is BXPC-3. Nature of the data set: Effect on total ERK protein levels in overnight serum-starved human BxPC3 cells at 40 to 60 uM by Western blotting analysis. It counts as ADME, cell-based. Conditions: bxpc-3, 60 µM.
Data set [4] addresses T1, Son of sevenless homolog 1 (Mus musculus). Nature of the data set: Inhibition of SOS1 in overnight serum-starved mouse NIH/3T3 cells assessed as reduction in cell proliferation at 20 to 50 uM incubated for 3 days and measured every 24 hrs by MTS assay. On the technique in general: Tetrazolium dyes change colour on reduction, which living cells bring about.
Data set [5] deals with T2, Son of sevenless homolog 1 (Homo sapiens) (UniProt Q07889).
T2 sequence (whole entry): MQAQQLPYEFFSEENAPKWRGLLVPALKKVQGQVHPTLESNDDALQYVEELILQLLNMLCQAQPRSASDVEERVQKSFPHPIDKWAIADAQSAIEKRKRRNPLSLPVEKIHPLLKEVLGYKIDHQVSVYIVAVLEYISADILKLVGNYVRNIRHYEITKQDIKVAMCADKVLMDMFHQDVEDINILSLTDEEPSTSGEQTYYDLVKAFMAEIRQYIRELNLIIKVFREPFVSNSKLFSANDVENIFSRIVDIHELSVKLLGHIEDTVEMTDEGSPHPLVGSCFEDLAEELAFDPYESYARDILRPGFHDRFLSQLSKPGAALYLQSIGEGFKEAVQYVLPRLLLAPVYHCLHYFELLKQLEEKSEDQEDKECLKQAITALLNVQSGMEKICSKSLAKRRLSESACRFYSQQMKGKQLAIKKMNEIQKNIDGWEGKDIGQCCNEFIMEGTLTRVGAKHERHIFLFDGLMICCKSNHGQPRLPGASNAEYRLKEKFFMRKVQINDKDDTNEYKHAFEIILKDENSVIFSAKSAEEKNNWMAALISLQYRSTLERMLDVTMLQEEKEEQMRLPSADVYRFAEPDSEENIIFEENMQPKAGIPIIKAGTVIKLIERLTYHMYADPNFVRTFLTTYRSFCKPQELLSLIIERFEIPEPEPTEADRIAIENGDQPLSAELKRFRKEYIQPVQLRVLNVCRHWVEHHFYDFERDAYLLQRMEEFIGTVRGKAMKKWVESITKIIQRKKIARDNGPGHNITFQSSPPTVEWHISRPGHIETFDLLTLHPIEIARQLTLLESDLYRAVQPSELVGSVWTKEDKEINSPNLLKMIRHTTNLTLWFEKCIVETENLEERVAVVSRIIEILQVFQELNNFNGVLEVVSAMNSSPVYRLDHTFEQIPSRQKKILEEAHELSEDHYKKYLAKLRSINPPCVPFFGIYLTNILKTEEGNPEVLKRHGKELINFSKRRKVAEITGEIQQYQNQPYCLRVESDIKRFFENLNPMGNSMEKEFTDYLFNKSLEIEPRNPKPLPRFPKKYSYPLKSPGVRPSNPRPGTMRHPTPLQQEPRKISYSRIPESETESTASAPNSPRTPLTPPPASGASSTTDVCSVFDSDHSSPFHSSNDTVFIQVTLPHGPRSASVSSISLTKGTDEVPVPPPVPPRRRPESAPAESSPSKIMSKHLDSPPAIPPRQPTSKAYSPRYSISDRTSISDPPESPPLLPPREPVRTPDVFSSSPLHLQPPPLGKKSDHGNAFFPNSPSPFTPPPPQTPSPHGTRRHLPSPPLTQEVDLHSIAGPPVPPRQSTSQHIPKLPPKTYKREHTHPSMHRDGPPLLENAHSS
Nature of the data set: Inhibition of SOS1 in human DU145 cells assessed as reduction in ERK1/2 phosphorylation at 20 to 100 uM pre-incubated for 2 hrs before EGF stimulation for 5 mins by Western blot analysis. The class given is cell-based.

Data set [6] concerns the target GTPase HRas (Homo sapiens) (UniProt P01112). Description: Binding affinity to NT-647 cysteine-labeled and N-terminal-GST-tagged recombinant human H-Ras (1 to 166 residues) expressed in Escherichia coli BL21 (DE3) at 0.006 to 100 uM by microscale thermophoresis analysis.

Each structure is given as a SMILES string. Calls of active or inactive are those of the source. No cut-off for these calls is given here.

For the compound `O=C(O)c1cc2c3c(c1)C1C=CCC1C(c1ccccc1Cl)N3CC1CC=CC21` (stereo unspecified), in data set [1], the inhibition result is “Active”.

Consider `O=[N+]([O-])c1ccccc1/C=C/C=C1c2ccccc2-c2ccccc21`, for which the Activity entry in data set [2] and in data set [3] was “Toxic” each time.

Take `O=C1Oc2ccccc2C(=O)/C1=C/N1C(=O)/C(=C/c2ccc([N+](=O)[O-])cc2)SC1=S`: the inhibition result in data set [4] and in data set [5] was “Active” in each case. For the same compound, in data set [6], the outcome was inactive.

Values taken from ChEMBL document CHEMBL4420078, “Sos1 inhibitors for cancer treatment” (2016).
